Measured values reported in patent publication US20240382600A1, “BIFUNCTIONAL DEGRADERS COMPRISING A TEAD BINDER” (Novartis AG, priority 2021, published 2024).

Key:
[1] = tested on: YAP-dependent transcription in NCI-H2052 Tet-On shYAP_2371 pLenti6 MCAT_Luc cells; experiment: YAP reporter gene activity assay (MCAT-Luc), NCI-H2052; type: cell-based; details: 24 hrs
[2] = tested on: MKN-45/Ubc-luc cells (unspecific inhibition of luciferase expression or activity); experiment: Reporter gene assay specificity control (Ubc-Luc), MKN-45; type: cell-based; details: MKN-45/Ubc-luc specificity control, 24 hrs
How it was run: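 MKN-45 cells stably carrying a ubiquitin C promoter–firefly luciferase construct, treated the day after seeding with eleven 2-fold compound dilutions (0.1% DMSO final) for 24 hrs at 37° C. Luminescence read 5 min after Steady Glo addition; cell-free background subtracted, as a control for nonspecific luciferase inhibition.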

[3] = target: Avi-humanTEAD4^217-434 / Cy5 labeled humanYAP^60-100 (Homo sapiens (Human), UniProt Q15561); experiment: In-vitro biochemical TR-FRET assay (TEAD4/YAP); type: binding; details: 1 h at room temperature
[4] = tested on: SF268-MCAT_Luc_dox-i-shYAPLevy (Clone 13) cells; experiment: Proliferation assay (resazurin/AlamarBlue), SF268; type: cell-based; details: SF268, 72 hours
[5] = tested on: NCI-H2052 Tet-On shYAP_2371 pLenti6 MCAT_Luc cells; experiment: Proliferation assay (resazurin/AlamarBlue), NCI-H2052; type: cell-based; details: NCI-H2052, 72 hours
[6] = tested on: MKN-45/Ubc-luc cells; experiment: Proliferation assay (resazurin/AlamarBlue), MKN-45; type: cell-based; details: MKN-45, 72 hours
How it was run: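 MKN-45 cells carrying constitutive Ubc-driven luciferase reporter, treated the day after seeding with eleven 2-fold dilutions (0.1% DMSO) for 72 h at 37 °C. Viability by resazurin, referenced to day-0 plate; GI50 from % growth (100 none, 0 stasis, −100 kill) and residual viability at top concentration.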

[7] = tested on: YAP-dependent transcription in SF268-MCAT_Luc_dox-i-shYAPLevy (Clone 13) cells; experiment: YAP reporter gene activity assay (MCAT-Luc), SF268; type: cell-based; details: SF268 MCAT_Luc, 24 hrs
[8] = target: TEAD1-GFP in HEK293A cells (Homo sapiens (Human), UniProt P28347); experiment: TEAD1 protein abundance flow cytometry assay in HEK293A; type: cell-based; details: HEK293A TEAD1-GFP-CHYSEL-mCherry sensor cells, 24 h, GFP signal by flow cytometry
How it was run: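 HEK293A stably expressing bicistronic TEAD1-GFP-CHYSEL-mCherry treated 24 h at 37° C with 10-point 3-fold series from 10 μM (0.1% DMSO), duplicate. Median GFP of 2,500 single cells by flow cytometry, normalized to parental HEK293A (0%) and DMSO (100%); DC50 from concentration-response curves.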

Sequence of TEAD1-GFP in HEK293A cells (P28347 whole entry): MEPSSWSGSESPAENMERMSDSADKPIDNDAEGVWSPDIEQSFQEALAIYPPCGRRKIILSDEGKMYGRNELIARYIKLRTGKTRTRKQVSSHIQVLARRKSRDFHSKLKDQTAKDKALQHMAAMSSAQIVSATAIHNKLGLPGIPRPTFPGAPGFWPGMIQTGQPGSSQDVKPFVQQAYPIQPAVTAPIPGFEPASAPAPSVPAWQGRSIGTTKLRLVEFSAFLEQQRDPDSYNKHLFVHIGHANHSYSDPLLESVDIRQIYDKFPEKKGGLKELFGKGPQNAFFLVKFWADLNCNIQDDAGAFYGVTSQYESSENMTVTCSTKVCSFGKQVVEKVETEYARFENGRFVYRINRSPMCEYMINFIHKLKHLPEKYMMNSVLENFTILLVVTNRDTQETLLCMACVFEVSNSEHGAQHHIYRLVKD
Sequence of Avi-humanTEAD4^217-434 / Cy5 labeled humanYAP^60-100 (Q15561 217-434): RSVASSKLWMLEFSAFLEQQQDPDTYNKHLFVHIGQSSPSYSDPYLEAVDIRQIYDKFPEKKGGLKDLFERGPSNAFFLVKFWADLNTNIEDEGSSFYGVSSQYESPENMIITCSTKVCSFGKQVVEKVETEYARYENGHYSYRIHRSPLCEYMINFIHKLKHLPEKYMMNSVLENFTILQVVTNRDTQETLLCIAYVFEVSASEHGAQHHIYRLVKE

IC50 ([1]; Homo sapiens) [nM]	IC50 ([2]; Homo sapiens) [nM]	IC50 [3] [nM]	GI50 ([5]; Homo sapiens) [nM]	GI50 ([6]; Homo sapiens) [nM]	IC50 ([7]; Homo sapiens, SF-268) [nM]	DC50 [8] [nM]	IC50 [1] [nM]	IC50 [2] [nM]	GI50 [5] [nM]	GI50 [6] [nM]	IC50 [7] [nM]	Compound	GI50 ([4]; Homo sapiens, SF-268) [nM]	GI50 [4] [nM]
630	> 2000	2.3	670	> 2000	1.9	2800						CN[C@@H](C)C(=O)N[C@H](C(=O)N1C[C@@H](NCC(=O)N[C@H]2CC[C@H](NC(=O)[C@H]3CC[C@H](NC[C@]4(c5ccccc5)Oc5cc(F)c(Cl)c(-c6c(C(N)=O)ccc(OC)c6F)c5[C@@H]4C)CC3)CC2)C[C@H]1C(=O)N[C@@H]1CCCc2ccccc21)C1CCCCC1 (atropisomer, axis not shown) [Example 44, (2S,4S)-4-((2-(((1S,4S)-4-((1S,4S)-4-((((2S,3S,4S)-4-(6-carbamoyl-2-fluoro-3-methoxyphenyl)-5-chloro-6-fluoro-3-methyl-2-phenyl-2,3-dihydrobenzofuran-2-yl)methyl)amino)cyclohexane-1-carboxamido)cyclohexyl)amino)-2-oxoethyl)amino)-1-((S)-2-cyclohexyl-2-((S)-2-(methylamino)propanamido)acetyl)-N-((R)-1,2,3,4-tetrahydronaphthalen-1-yl)pyrrolidine-2-carboxamide]	1300	
1.9	> 20000	1.8	6.6	> 20000	0.28	0.6						COc1ccc(C(N)=O)c(-c2c(Cl)c(F)cc3c2[C@H](C)[C@@](CN[C@H]2CC[C@H](C(=O)NCCCCCc4cccc5c4CN(C4CCC(=O)NC4=O)C5=O)CC2)(c2ccccc2)O3)c1F (stereo partly drawn) [Example 31, 2-((2S,3S,4S)-5-chloro-2-((((1r,4S)-4-((5-(2-(2,6-dioxopiperidin-3-yl)-1-oxoisoindolin-4-yl)pentyl)carbamoyl)cyclohexyl)amino)methyl)-6-fluoro-3-methyl-2-phenyl-2,3-dihydrobenzofuran-4-yl)-3-fluoro-4-methoxybenzamide]	19	
		3.9				2	9.9	> 2000	27	> 2000	1.3	N-(4-(1-((1S,4r)-4-((((2S,3S,4S)-4-(6-carbamoyl-2-fluoro-3-methoxyphenyl)-5-chloro-6-fluoro-3-methyl-2-phenyl-2,3-dihydrobenzofuran-2-yl)methyl)amino)cyclohexane-1-carbonyl)piperidin-4-yl)butyl)-3-(2,4-dioxotetrahydropyrimidin-1(2H)-yl)-4-methoxybenzamide [Example 18]		60
